Test results published in patent publication US20220324815A1, “2-PHENOXY-PYRIMIDINE DERIVATIVES AS HERBICIDAL COMPOUNDS” (SYNGENTA CROP PROTECTION AG, priority 2019, published 2022).

How the values were obtained:
Format in all cases: in vivo
Conditions in all cases: 250 g/ha unless otherwise stated, evaluated after 13 days, five-point scale
[1] = tested on: Ipomoea hederacea (IPOHE); experiment: Test 1 glasshouse herbicide test, pre-emergence application (Table B2)
Description: (§1) Seeds of a variety of test species are sown in standard soil in pots (Lolium perenne (LOLPE), Solanum nigrum (SOLNI), Amaranthus retoflexus (AMARE), Setaria faberi (SETFA), Echinochloa crus-galli (ECHCG) and Ipomoea hederacea (IPOHE)). After cultivation for one day (pre-emergence) or after 8 days cultivation (post-emergence) under controlled conditions in a glasshouse (at 24/16° C., day/night; 14 hours light; 65% humidity), the plants are sprayed with an aqueous spray solution derived from the formulation of the technical active ingredient in acetone/water (50:50) solution containing 0.5% Tween 20 (polyoxyethelyene sorbitan monolaurate, CAS RN 9005-64-5). Compounds are applied at 250 g/ha unless otherwise stated. The test plants are then grown in a glasshouse under controlled conditions in a glasshouse (at 24/16° C., day/night; 14 hours light; 65% humidity) and watered twice daily. After 13 days for pre and post-emergence, the test is evaluated for the percentage damage caused to the plant. The biological activities (% phytotoxicity) are shown in Tables B1 and B2 below using a five-point scale (5=81 to 100%; 4=61 to 80%; 3=41 to 60%; 2=21 to 40%; 1=0 to 20%).

[2] = tested on: Echinochloa crus-galli (ECHCG); experiment: as above
Description: as §1

[3] = tested on: Amaranthus retoflexus (AMARE); experiment: as above
Description: as §1

Setaria faberi (SETFA) [4] = experiment: as above
Description: as §1

[5] = tested on: Ipomoea hederacea (IPOHE); experiment: Test 1 glasshouse herbicide test, post-emergence application (Table B1)
Description: as §1

[6] = tested on: Echinochloa crus-galli (ECHCG); experiment: as above
Description: as §1

[7] = tested on: Amaranthus retoflexus (AMARE); experiment: as above
Description: as §1

Setaria faberi (SETFA) [8] = experiment: as above
Description: as §1

| Compound | % phytotoxicity IPOHE, pre-emergence application [1] | % phytotoxicity ECHCG, pre-emergence application [2] | % phytotoxicity AMARE, pre-emergence application [3] | % phytotoxicity SETFA, pre-emergence application (Setaria faberi (SETFA) [4]) | % phytotoxicity IPOHE, post-emergence application [5] | % phytotoxicity ECHCG, post-emergence application [6] | % phytotoxicity AMARE, post-emergence application [7] | % phytotoxicity SETFA, post-emergence application (Setaria faberi (SETFA) [8]) |
| --- | --- | --- | --- | --- | --- | --- | --- | --- |
| FC(F)=C(F)CCSc1ccccc1Oc1ncc(Cl)cn1 [Compound A68] | 4 (4=61 to 80%) | 5 (5=81 to 100%) | 5 (5=81 to 100%) | 5 (5=81 to 100%) | 5 (5=81 to 100%) | 5 (5=81 to 100%) | 5 (5=81 to 100%) | 4 (4=61 to 80%) |
| CC(C)CCSc1ccccc1Oc1ncc(Cl)cn1 [Compound A70] | 1 (1=0 to 20%) | 5 (5=81 to 100%) | 2 (2=21 to 40%) | 5 (5=81 to 100%) | 4 (4=61 to 80%) | 5 (5=81 to 100%) | 2 (2=21 to 40%) | 4 (4=61 to 80%) |
| C=CCCSc1ccccc1Oc1ncc(Cl)cn1 [Compound A71] | 1 (1=0 to 20%) | 5 (5=81 to 100%) | 5 (5=81 to 100%) | 5 (5=81 to 100%) | 4 (4=61 to 80%) | 4 (4=61 to 80%) | 5 (5=81 to 100%) | 3 (3=41 to 60%) |
| CC(C)CSc1ccccc1Oc1ncc(Cl)cn1 [Compound A72] | 1 (1=0 to 20%) | 4 (4=61 to 80%) | 4 (4=61 to 80%) | 4 (4=61 to 80%) | 2 (2=21 to 40%) | 3 (3=41 to 60%) | 3 (3=41 to 60%) | 2 (2=21 to 40%) |
| O=S(=O)(CCC(F)=C(F)F)c1ccccc1Oc1ncc(Cl)cn1 [Compound A73] | 1 (1=0 to 20%) | 5 (5=81 to 100%) | 5 (5=81 to 100%) | 4 (4=61 to 80%) | 1 (1=0 to 20%) | 3 (3=41 to 60%) | 4 (4=61 to 80%) | 3 (3=41 to 60%) |
| CC(C)CCS(=O)(=O)c1ccccc1Oc1ncc(Cl)cn1 [Compound A75] | 1 (1=0 to 20%) | 4 (4=61 to 80%) | 5 (5=81 to 100%) | 4 (4=61 to 80%) | 2 (2=21 to 40%) | 3 (3=41 to 60%) | 2 (2=21 to 40%) | 2 (2=21 to 40%) |
| CC(C)CS(=O)(=O)c1ccccc1Oc1ncc(Cl)cn1 [Compound A76] | 2 (2=21 to 40%) | 3 (3=41 to 60%) | 5 (5=81 to 100%) | 4 (4=61 to 80%) | 2 (2=21 to 40%) | 2 (2=21 to 40%) | 1 (1=0 to 20%) | 1 (1=0 to 20%) |
| CCCCCCS(=O)(=O)c1ccccc1Oc1ncc(Cl)cn1 [Compound A77] | 1 (1=0 to 20%) | 3 (3=41 to 60%) | 4 (4=61 to 80%) | 1 (1=0 to 20%) | 1 (1=0 to 20%) | 1 (1=0 to 20%) | 2 (2=21 to 40%) | 1 (1=0 to 20%) |
| O=S(=O)(CCCF)c1ccccc1Oc1ncc(Cl)cn1 [Compound A82] | 1 (1=0 to 20%) | 3 (3=41 to 60%) | 5 (5=81 to 100%) | 3 (3=41 to 60%) | 3 (3=41 to 60%) | 1 (1=0 to 20%) | 3 (3=41 to 60%) | 1 (1=0 to 20%) |
| CCC(CC)CS(=O)(=O)c1ccccc1Oc1ncc(Cl)cn1 [Compound A87] | 1 (1=0 to 20%) | 1 (1=0 to 20%) | 1 (1=0 to 20%) | 1 (1=0 to 20%) | 1 (1=0 to 20%) | 1 (1=0 to 20%) | 1 (1=0 to 20%) | 1 (1=0 to 20%) |
| CCC(C)S(=O)(=O)c1ccccc1Oc1ncc(Cl)cn1 (stereo not shown) [Compound A88] | 2 (2=21 to 40%) | 1 (1=0 to 20%) | 5 (5=81 to 100%) | 5 (5=81 to 100%) | 1 (1=0 to 20%) | 1 (1=0 to 20%) | 2 (2=21 to 40%) | 1 (1=0 to 20%) |
| O=S(=O)(Cc1cccc(Cl)c1)c1ccccc1Oc1ncc(Cl)cn1 [Compound A89] | 1 (1=0 to 20%) | 1 (1=0 to 20%) | 1 (1=0 to 20%) | 1 (1=0 to 20%) | 1 (1=0 to 20%) | 1 (1=0 to 20%) | 3 (3=41 to 60%) | 1 (1=0 to 20%) |
| N#Cc1cccc(Oc2ncc(Cl)cn2)c1S(=O)(=O)CCCCC(F)(F)F [Compound A91] | 5 (5=81 to 100%) | 5 (5=81 to 100%) | 5 (5=81 to 100%) | 5 (5=81 to 100%) | 4 (4=61 to 80%) | 5 (5=81 to 100%) | 5 (5=81 to 100%) | 4 (4=61 to 80%) |
| N#Cc1cccc(Oc2ncc(Cl)cn2)c1S(=O)(=O)CCCCCC(F)(F)F [Compound A92] | 1 (1=0 to 20%) | 4 (4=61 to 80%) | 5 (5=81 to 100%) | 4 (4=61 to 80%) | 2 (2=21 to 40%) | 3 (3=41 to 60%) | 5 (5=81 to 100%) | 2 (2=21 to 40%) |
| FC(F)CCSc1c(Cl)cccc1Oc1ncc(Cl)cn1 [Compound A94] | 3 (3=41 to 60%) | 5 (5=81 to 100%) | 5 (5=81 to 100%) | 5 (5=81 to 100%) | 3 (3=41 to 60%) | 5 (5=81 to 100%) | 5 (5=81 to 100%) | 5 (5=81 to 100%) |
| [O-][S+](CCC(F)F)c1c(Cl)cccc1Oc1ncc(Cl)cn1 (stereo not shown) [Compound A95] | 5 (5=81 to 100%) | 5 (5=81 to 100%) | 5 (5=81 to 100%) | 5 (5=81 to 100%) | 4 (4=61 to 80%) | 2 (2=21 to 40%) | 4 (4=61 to 80%) | 1 (1=0 to 20%) |
| O=S(=O)(CCC(F)F)c1c(Cl)cccc1Oc1ncc(Cl)cn1 [Compound A96] | 5 (5=81 to 100%) | 5 (5=81 to 100%) | 5 (5=81 to 100%) | 5 (5=81 to 100%) | 5 (5=81 to 100%) | 5 (5=81 to 100%) | 5 (5=81 to 100%) | 5 (5=81 to 100%) |
